Test results: PubChem BioAssay AID1963854 (Molecular Pharmacology Branch, DTP, NCI, 2024)
Where “and” joins values, the source holds several entries; their conditions need not be identical. Equal values may be shown once.

Test system: 186277-243-T-J2-PDC complex spheroid viability
Assay: Anticancer human tumor 186277-243-T-J2-PDC patient-derived colon adenocarcinoma cell line growth inhibition [POLQ]
Details: for viability, T/C: stronger effect = lower value
Description: Multicellular complex tumor spheroid response to Polymerase (POL) inhibitors (novobiocin, ART-558, RP6685) in combination with a variety of drugs and investigational agents in selected tumor cell lines
The POL inhibitors (novobiocin, ART-558, and RP6685) were evaluated both individually and in combination with standard of care and investigational anticancer small molecules within a complex spheroid model of solid tumors. . Complex spheroids include a stromal component modeled by human endothelial cells (HUVEC) and fibroblasts modeled by human mesenchymal stem cells (MSCs). The concentration ranges selected for each drug and investigational agent were based upon clinically achievable concentrations if the clinical Cmax of the agent was known.
Compounds. The drugs and investigational agents: novobiocin (NSC847541), ART-558 (NSC835418), RP-6685 (NSC848927), peposertib (NSC802822), ceralasertib (NSC780249), elimusertib (NSC800525), camonsertib (NSC841442), AZD-1390 (NSC803789), olaparib (NSC753686), talazoparib (NSC767125), rucaparib (NSC756644), sotorasib (NSC818433), MRTX-1133 (NSC836407), SN-38 (NSC673596), topotecan (NSC609699), epotoside (NSC141540), doxorubicin (NSC123127), gemcitabine (NSC613327), 5-fluorouracil (NSC19893), paclitaxel (NSC125973), vemurafenib (NSC761431), MSA-2 (NSC828583), SN-011 (NSC837082), adavosertib (NSC754352), prexasertib (NSC758257), carboplatin (NSC241240) and oxaliplatin (NSC266046), were obtained from the National Cancer Institute (NCI) Developmental Therapeutics Program Chemical Repository (21). The FDA-approved anticancer drug set is available from the Developmental Therapeutics Program at https://dtp.cancer.gov/organization/dscb/obtaining/. […] The stock solutions were prepared in dimethyl sulfoxide (DMSO, Sigma-Aldrich, St. Louis, MO, cat. D2650), except for the platinum compounds which were prepared in saline (Quality Biological, Gaithersburg, MD, cat. 114-055-101), at 800-fold the tested concentration and stored at -70 degrees C prior to their use. All drugs and investigational agents were tested over a range starting from a high concentration at or near the clinical Cmax and decreasing in half-log increments. If the clinical Cmax for an agent had not been determined, the highest concentration tested was 10 microM, except for SN-38, which was tested at a high concentration of 1 microM.
Cell Culture. All cells were maintained in an incubator at 37 degrees C and 5% CO2 with 95% humidity. The PDC lines were cultured according to standard operating procedures established by the NCI PDMR (https://pdmr.cancer.gov). Table 3 of the manuscript, lists the cell lines along with the number of the three cell types plated to form the mct-spheroids and media for tumor cell growth. After thawing, all PDC lines, except 997537-175-T-J1-PDC and 415267-285-R-J2-PDC, were cultured in Matrigel-coated flasks prepared with a working solution of 1X Ham's F-12 nutrient mix, without supplementation (Thermo Fisher Scientific, cat. 11765054), 100 U/mL penicillin-streptomycin (Thermo Fisher Scientific, cat. 15140122), and 2.5% Matrigel (Corning Inc., Corning, NY, cat. 354248) for the first three passages. The two PDC lines 997537-175-T-J1-PDC and 415267-285-R-J2-PDC were cultured on uncoated flasks. The 857933-349-R-J2-PDC line was cultured in 6C/Colon 1B media containing advanced DMEM/F-12 (Thermo Fisher Scientific, cat. 12634028), 10 mM HEPES (Thermo Fisher Scientific, cat. 15630080), 1X GlutaMAX supplement (Thermo Fisher Scientific, cat. 35050061), 0.1 mg/mL primocin (InvivoGen, San Diego, CA, cat. ant-pm-2), 10% defined fetal bovine serum, heat inactivated (HyClone Laboratories Inc., Logan, UT, cat. SH30070.03HI), 50% L-WRN conditioned media (ATCC, cat. CRL-3276), 1.25 mM N-Acetyl-L-cysteine (Sigma-Aldrich, cat. A9165), 10 mM nicotinamide (Sigma-Aldrich, cat. N0636), 1X B-27 supplement (Thermo Fisher Scientific, cat. 17504044), 1X N-2 supplement (Thermo Fisher Scientific, cat. […]

[1] = curve of first compound, second compound 0.0316 µM
[2] = curve of first compound, second compound 0.1 µM
[3] = curve of first compound, second compound 0.316 µM
[4] = curve of first compound, second compound 1 µM
[5] = curve of first compound, second compound 3.16 µM
[6] = curve of first compound, second compound 10 µM
[7] = second compound 0.0316 µM, first compound 0.0316 µM
[8] = second compound 0.0316 µM, first compound 0.1 µM
[9] = second compound 0.0316 µM, first compound 0.316 µM
[10] = second compound 0.0316 µM, first compound 1 µM
[11] = second compound 0.1 µM, first compound 0.0316 µM
[12] = second compound 0.1 µM, first compound 0.1 µM
[13] = second compound 0.1 µM, first compound 0.316 µM
[14] = second compound 0.1 µM, first compound 1 µM
[15] = second compound 0.316 µM, first compound 0.0316 µM
[16] = second compound 0.316 µM, first compound 0.1 µM
[17] = second compound 0.316 µM, first compound 0.316 µM
[18] = second compound 0.316 µM, first compound 1 µM
[19] = second compound 1 µM, first compound 0.0316 µM
[20] = second compound 1 µM, first compound 0.1 µM
[21] = second compound 1 µM, first compound 0.316 µM
[22] = second compound 1 µM, first compound 1 µM
[23] = second compound 3.16 µM, first compound 0.0316 µM
[24] = second compound 3.16 µM, first compound 0.1 µM
[25] = second compound 3.16 µM, first compound 0.316 µM
[26] = second compound 3.16 µM, first compound 1 µM
[27] = second compound 10 µM, first compound 0.0316 µM
[28] = second compound 10 µM, first compound 0.1 µM
[29] = second compound 10 µM, first compound 0.316 µM
[30] = second compound 10 µM, first compound 1 µM
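Further: spheroids exposed to compounds for seven days.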
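Wherever viability, T/C is given: 100% = DMSO vehicle control viability.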

COc1cccc(OCCCN)c1-c1cc(Nc2cnc(C#N)cn2)n[nH]1 + Cc1cccc(N(C)C(=O)C2C(O)CCN2c2nc(C)cc(C(F)(F)F)c2C#N)c1
IC50 [1]: < 3.16 nM
IC50 [2]: < 3.16 nM
IC50 [3]: < 3.16 nM
IC50 [4]: < 3.16 nM
IC50 [5]: < 3.16 nM
IC50 [6]: < 3.16 nM
viability, T/C (second compound 0.0316 µM, first compound 0.00316 µM): 38.4%
viability, T/C (second compound 0.0316 µM, first compound 0.01 µM): 14.9%
viability, T/C [7]: 11.1%
viability, T/C [8]: 10%
viability, T/C [9]: 9.49%
viability, T/C [10]: 10.2%
viability, T/C (second compound 0.1 µM, first compound 0.00316 µM): 33.4%
viability, T/C (second compound 0.1 µM, first compound 0.01 µM): 15.7%
viability, T/C [11]: 10.9%
viability, T/C [12]: 9.64%
viability, T/C [13]: 10.2%
viability, T/C [14]: 9.26%
viability, T/C (second compound 0.316 µM, first compound 0.00316 µM): 30.1%
viability, T/C (second compound 0.316 µM, first compound 0.01 µM): 12%
viability, T/C [15]: 10.7%
viability, T/C [16]: 10.1%
viability, T/C [17]: 9.4%
viability, T/C [18]: 8.53%
viability, T/C (second compound 1 µM, first compound 0.00316 µM): 30.9%
viability, T/C (second compound 1 µM, first compound 0.01 µM): 11.5%
viability, T/C [19]: 9.4%
viability, T/C [20]: 9.54%
viability, T/C [21]: 9.34%
viability, T/C [22]: 9.69%
viability, T/C (second compound 3.16 µM, first compound 0.00316 µM): 34.2%
viability, T/C (second compound 3.16 µM, first compound 0.01 µM): 11.5%
viability, T/C [23]: 9.08%
viability, T/C [24]: 9.36%
viability, T/C [25]: 9.81%
viability, T/C [26]: 9.01%
viability, T/C (second compound 10 µM, first compound 0.00316 µM): 17.9%
viability, T/C (second compound 10 µM, first compound 0.01 µM): 9.92%
viability, T/C [27]: 8.74%
viability, T/C [28]: 8.3%
viability, T/C [29]: 9.78%
viability, T/C [30]: 9.02%

C=CC(=O)N1CCN(c2nc(=O)n(-c3c(C)ccnc3C(C)C)c3nc(-c4c(O)cccc4F)c(F)cc23)C(C)C1 (stereo unspecified) + Nc1ccc(C#CCN(C(=O)Cc2ncc(C(F)(F)F)cc2C(F)(F)F)c2ccc(F)cc2)nn1
IC50 [1]: > 10000 nM
IC50 [2]: > 10000 nM
IC50 [3]: > 10000 nM
IC50 [4]: > 10000 nM
IC50 [5]: > 10000 nM
IC50 [6]: > 10000 nM
viability, T/C [7]: 98.7%
viability, T/C [8]: 84.2%
viability, T/C [9]: 96.2%
viability, T/C [10]: 83.5%
viability, T/C (second compound 0.0316 µM, first compound 3.16 µM): 115%
viability, T/C (second compound 0.0316 µM, first compound 10 µM): 101%
viability, T/C [11]: 93.1%
viability, T/C [12]: 94.5%
viability, T/C [13]: 102%
viability, T/C [14]: 103%
viability, T/C (second compound 0.1 µM, first compound 3.16 µM): 95.1%
viability, T/C (second compound 0.1 µM, first compound 10 µM): 112%
viability, T/C [15]: 91%
viability, T/C [16]: 106%
viability, T/C [17]: 100%
viability, T/C [18]: 96.1%
viability, T/C (second compound 0.316 µM, first compound 3.16 µM): 92.6%
viability, T/C (second compound 0.316 µM, first compound 10 µM): 100%
viability, T/C [19]: 91.8%
viability, T/C [20]: 101%
viability, T/C [21]: 90%
viability, T/C [22]: 87.1%
viability, T/C (second compound 1 µM, first compound 3.16 µM): 96%
viability, T/C (second compound 1 µM, first compound 10 µM): 104%
viability, T/C [23]: 97.6%
viability, T/C [24]: 92.3%
viability, T/C [25]: 97.7%
viability, T/C [26]: 102%
viability, T/C (second compound 3.16 µM, first compound 3.16 µM): 99.3%
viability, T/C (second compound 3.16 µM, first compound 10 µM): 101%
viability, T/C [27]: 112%
viability, T/C [28]: 99.9%
viability, T/C [29]: 107%
viability, T/C [30]: 101%
viability, T/C (second compound 10 µM, first compound 3.16 µM): 95.9%
viability, T/C (second compound 10 µM, first compound 10 µM): 105%

CCc1c2c(nc3ccc(O)cc13)-c1cc3c(c(=O)n1C2)COC(=O)[C@]3(O)CC
viability, T/C (compound 0.00316 µM): 71.2% and 120% and 58.7%
viability, T/C (compound 0.01 µM): 48.6% and 82.9% and 43.5%
viability, T/C (compound 0.0316 µM): 25.4% and 47% and 22.2%
viability, T/C (compound 0.1 µM): 12.7% and 25.5% and 10.8%
viability, T/C (compound 0.316 µM): 9.65% and 21.7% and 8.26%
viability, T/C (compound 1 µM): 7.75% and 21.3% and 6.71%
IC50 (curve of compound): 9.35 nM and 27.7 nM and 6.11 nM
